US20210213097A1, “PEPTIDE INTERACTING WITH TOLL-LIKE RECEPTOR 2 AND THE COMPOSITION COMPRISING THE SAME” (NATIONAL TAIPEI UNIVERSITY OF TECHNOLOGY, priority 2020, published 2021)
Entries after “also recorded” stand apart in the source; their conditions may differ.

B1: Amuc_1100*: protein Amuc_1100 of Akkermansia muciniphila which does not include the transmembrane domain, SEQ ID NO.1 (protein, listed as Akkermansia muciniphila)
chain: IVNSKRSELDKKISIAAKEIKSANAAEITPSRSSNEELEKELNRYAKAVGSLETAYKPFLASSALVPTTPTAFQNELKTFRDSLISSCKKKNILITDTSSWLGFQVYSTQAPSVQAASTLGFELKAINSLVNKLAECGLSKFIKVYRPQLPIETPANNPEESDEADQAPWTPMPLEIAFQGDRESVLKAMNAITGMQDYLFTVNSIRIRNERMMPPPIANPAAAKPAAAQPATGAASLTPADEAAAPAAPAIQQVIKPYMGKEQVFVQVSLNLVHFNQPKAQEPSED

Experiments:
zebra fish [1] = assay: Zebra fish fed 6 times per day (autofat animal model), Example 5: body weight and glucose; format: in vivo; settings: Example 5, normal diet 6 times per day; for level of glucose: Day 13, FIG. 8 lower panel; for body weight at end of experimentation (Day 13) compared to the original level and the GST group: FIG. 8
Description: Zebra fish was bred in 25° C. water (pH 6.5-7.5, conductivity 250-750 S·m^−1, NH3<0.25 ppm, NO2<0.25 ppm, NO3<0.5 ppm) and was fed with normal diet bid. (brine shrimp). Each group of experimentation comprises 10 zebra fish (n=10). The gavage feeding of Zebra fish follows the protocol disclosed in Collymore et al. (Journal of Visualized Experiment (2013)). During 13 days of experimentation, the zebra fish were fed once a day with the peptide fragments as disclosed herein in a 1× dose of 0.03 μg/day/fish. The weight of zebra fish was measured respectively on day 0, 1, 3, 6, 9, 12 and 13. In the present example, five groups of zebra fish were administered with the peptides as disclosed herein: The material and method employed in the present example is similar to that of Example 3, which is not repeated herein, except the following difference. In the present example, Zebra fish was bred and fed with normal diet (brine shrimp) 6 times per day and also with the peptide as disclosed herein once per day, to induce an autofat animal model. In the present example, five groups of zebra fish were administered with the peptides as disclosed herein: […]

zebra fish [2] = assay: Treatment of obesity in zebra fish, Example 3: body weight and glucose; format: in vivo; settings: 0.03 μg/day/fish
From the text: Zebra fish has been for a long time used as a model of obesity in many reports (Hasumura et al. Nutrition & Metabolism (2012); […] et al. Nutrition & Metabolism (2011); Oka et al. BMC Physiology (2010); Shimada et al. Nutrition & Metabolism (2015); Meguro et al. Scientific Reports (2019); Montalbano et al. Endocrine (2018); Yang et al. Cancer (2019)), which is also used herein as the subject of treatment of obesity with the peptides as disclosed herein. All peptides used in the present example were purified through CHT beads to remove endotoxin. LAL assay was further conducted and it was confirmed that the residue of endotoxin was under 0.25 EU/ml. Zebra fish was bred in 25° C. water (pH 6.5-7.5, conductivity 250-750 S·m^-1, NH3<0.25 ppm, NO2<0.25 ppm, NO3<0.5 ppm) and was fed with normal diet bid. (brine shrimp). Each group of experimentation comprises 10 zebra fish (n=10). The gavage feeding of Zebra fish follows the protocol disclosed in Collymore et al. (Journal of Visualized Experiment (2013)). During 13 days of experimentation, the zebra fish were fed once a day with the peptide fragments as disclosed herein in a 1× dose of 0.03 μg/day/fish. The weight of zebra fish was measured respectively on day 0, 1, 3, 6, 9, 12 and 13. In the present example, five groups of zebra fish were administered with the peptides as disclosed herein: […]

human TLR2 = target: T1, human TLR2 (Homo sapiens, UniProt O60603); assay: TLR induction screening in recombinant HEK-293 with NF-KB driven SEAP reporter; format: cell-based; settings: final concentration 10 μg/ml; recombinant HEK-293 overexpressing human TLR; FIG. 1A
T1 construct: host or cells: recombinant HEK-293
T1 sequence (O60603 21-784): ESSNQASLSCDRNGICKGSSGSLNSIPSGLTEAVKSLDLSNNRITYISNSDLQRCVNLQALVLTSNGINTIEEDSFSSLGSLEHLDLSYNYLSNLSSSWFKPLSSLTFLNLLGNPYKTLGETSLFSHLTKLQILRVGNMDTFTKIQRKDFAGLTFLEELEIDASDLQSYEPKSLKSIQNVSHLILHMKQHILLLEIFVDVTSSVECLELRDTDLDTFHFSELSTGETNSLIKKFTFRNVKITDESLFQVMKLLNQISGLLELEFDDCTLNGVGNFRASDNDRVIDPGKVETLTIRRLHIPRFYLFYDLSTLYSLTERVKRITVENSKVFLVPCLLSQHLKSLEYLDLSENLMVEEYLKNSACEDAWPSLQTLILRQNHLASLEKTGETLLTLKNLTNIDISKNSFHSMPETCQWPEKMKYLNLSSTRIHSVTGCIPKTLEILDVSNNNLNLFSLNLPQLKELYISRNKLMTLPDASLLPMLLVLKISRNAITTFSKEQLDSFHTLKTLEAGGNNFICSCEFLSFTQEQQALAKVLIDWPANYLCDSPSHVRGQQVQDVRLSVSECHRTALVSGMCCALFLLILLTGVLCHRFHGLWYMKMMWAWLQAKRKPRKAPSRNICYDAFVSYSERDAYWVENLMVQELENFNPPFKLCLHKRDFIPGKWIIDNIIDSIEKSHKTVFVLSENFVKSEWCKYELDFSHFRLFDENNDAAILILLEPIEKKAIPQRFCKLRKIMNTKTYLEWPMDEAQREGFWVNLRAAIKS
Description: Human Embryonic Kidney Cells 293 (HEK-293) were treated with the peptide fragments as disclosed herein.
Samples and controls are tested in duplicate on recombinant HEK-293 cell lines. These cell lines functionally overexpress human TLR as well as a reporter gene which is a secreted alkaline phosphatase (SEAP). The production of this reporter gene is driven by a NF-KB inducible promoter. The level of activation is given as optical density values (OD).
Samples in 100 μg/ml were diluted to a final concentration of 10 μg/ml in the reaction volume. Sample and controls are tested in duplicated wells. BSA is used as negative control.
SEAP reporter is detected as OD value. OD value is subtracted by average non-induced (NI) value. The NI subtracted duplicates are averaged and presented in a histogram. The reagents and materials employed in the instant examples were provided by Invivogen.

[3] = system: gene expression of MPX, IL10, CD86, and IL4; assay: RT-qPCR of gene expression in zebra fish treated with peptide, Example 3; format: in vivo; settings: Day 13, FIG. 4
Description: Y axis (-ΔΔCT) represents the difference in the threshold cycle of amplification. **: P<0.01; ****: P<0.0001. Further, the RT(reversed-transcription)-qPCR was conducted to detect the quantity of gene expression of MPX, IL10, CD86, and IL4 in the zebra fish treated with AMSS according to the present example. […] (FIG. 4)

Molecule | level of glucose (zebra fish [1]) | body weight at end of experimentation (Day 13) compared to the original level and the GST group (zebra fish [1]) | glucose detected in the serum of zebra fish (zebra fish [2]; Day 13, FIG. 3 lower panel) | reduction in body weight at end of experimentation (Day 13) (zebra fish [2]; Day 13 versus day 0, FIG. 3 upper panel) | change in body weight of zebra fish (zebra fish [2]; gavage once a day, 13 days, normal diet bid, FIG. 2) | reduction of body weight in average (zebra fish [2]; gavage once a day, end of experimentation, FIG. 2) | induction of TLR (SEAP reporter, OD) (human TLR2) | gene expression of IL4 [3] | gene expression of IL10 [3] | gene expression of MPX [3]
AMS5-2: fragment of Amuc_1100*, sequence GLSKFIKVYRPQL (listed as Akkermansia muciniphila) | reduced | further reduced |  |  |  |  |  |  |  | 
AMS5: fragment of Amuc_1100*, sequence AINSLVNKLAECGLSKFIKVYRPQL (listed as Akkermansia muciniphila) |  |  | did not reduce | shows statistical significance | significant reduction in body weight | approximately 20 mg | strongly and specifically activated; also recorded: capable to activate TLR2; also recorded: shows the activity for induction of TLR | significantly reduced | significantly reduced | did not
B1 | reduced | further reduced |  |  |  |  |  |  |  | 
